Measurements: US20250136579A1, “SALTS AND FREE BASES OF BIFUNCTIONAL COMPOUND AND POLYMORPH FORMS THEREOF” (NURIX THERAPEUTICS, INC., priority 2023, published 2025)
Read-outs that look alike come from different tables or passages of the source.

Columns and labels:
Assay type in all cases: physicochemical
[1] = pKa (base) of the free base compound of Formula (I)
Description: (§1) The free base compound of Formula (I) was used as a starting material. The compound of Formula (I) (MW 806.973 g/mol) is a chimeric targeting molecule that has two ligands connected by a linker.

[2] = kinetic solubility at pH 7.4; conditions: pH 7.4, aqueous buffer, kinetic from dmso stock
Description: as §1

[3] = estimated solubility by adding test solvent in aliquots to weighed solid, visual inspection; conditions: thermodynamic from solid, read-out: Solubility
Procedure: Solubilities of the compound of Formula (I), free base, in a few solvents were estimated. The experiments were carried out by adding the test solvent in aliquots to weighed portions of solid. Whether dissolution had occurred was judged by visual inspection after addition of each solvent aliquot. Solubility numbers were calculated by dividing the weight of the sample by total amount of solvent used to dissolve the sample. The actual solubilities may be greater than the numbers calculated because of the use of solvent aliquots that were too large or because of slow dissolution rates. […] The solubility number is expressed as “greater than or equal to” if dissolution occurred on addition of the first solvent aliquot.
Solubilities of Fumarate Salt Form A are shown in Tables 8 and 9, in selected solvents and aqueous binary mixtures.
Solubilities of the compound of Formula (I), Fumarate Salt Form A, are shown in Tables 15 and 16, in selected solvents and aqueous binary mixtures.

[4] = dynamic vapor sorption (DVS) analysis, TA Instruments Q5000, 5 to 95% RH
Procedure: For Fumarate Salt Form A, Dynamic vapor sorption (DVS) analysis was carried out using a TA Instruments Q5000 Dynamic Vapor Sorption analyser. The instrument was calibrated with standard weights and a sodium bromide standard for humidity. Approximately 10-25 mg of sample was loaded into a metal coated quartz pan for analysis. The sample was analysed at 25° C. with a maximum equilibration time of one hour in 10% relative humidity (RH) steps from 5 to 95% RH (adsorption cycle) and from 95 to 5% RH (desorption cycle). The movement from one step to the next occurred either after satisfying the equilibrium criterion of 0.01% weight change, or when the equilibrium criterion was not met after one hour. The percent weight change values were then calculated.

## CN1CCN([C@@H]2CCCN(c3cnc(C(N)=O)c(Nc4ccc(C5CCN(CC6CCN(c7ccc(C(=O)N[C@H]8CCC(=O)NC8=O)nc7)CC6)CC5)cc4)n3)C2)C1=O [free base compound of Formula (I)]
[1]
  pKa: ~6.5
[2]
  solubility kinetic: 10 µM
[3]; aqueous with cosolvent or surfactant or cyclodextrin, 1,4-dioxane/H2O (60/40), aw 1.0, at 60° C.
  solubility: 2000 µg/mL
[3]; aqueous with cosolvent or surfactant or cyclodextrin, 1-pentanol/H2O (saturated) (80:20 - 2 phase system), at 60° C.
  solubility: < 3000 µg/mL
[3]; aqueous with cosolvent or surfactant or cyclodextrin, 2-propanol/H2O (80/20), aw 0.9, at 60° C.
  solubility: < 2000 µg/mL
[3]; aqueous with cosolvent or surfactant or cyclodextrin, acetone/H2O (70/30), aw 0.85, at 60° C.
  solubility: < 2000 µg/mL
[3]; aqueous with cosolvent or surfactant or cyclodextrin, acetonitrile/H2O (45/55), aw 0.9, at 60° C.
  solubility: < 2000 µg/mL
[3]; aqueous with cosolvent or surfactant or cyclodextrin, ethanol/H2O (70/30), aw 0.8, at 60° C.
  solubility: < 2000 µg/mL
[3]; aqueous with cosolvent or surfactant or cyclodextrin, methanol/H2O (50/50), aw 0.75, at 60° C.
  solubility: < 2000 µg/mL
[3]; aqueous with cosolvent or surfactant or cyclodextrin, tetrahydrofuran/H2O (80/20), aw 1, at RT
  solubility: 5000 µg/mL
[3]; organic solvent or mixture, 1,2-dichloroethane, at 45° C.
  solubility: 2000 µg/mL
[3]; organic solvent or mixture, 1,4-dioxane, solubility without temperature
  solubility: 6000 µg/mL
[3]; organic solvent or mixture, 2-methyltetrahydrofuran (2-MeTHF), solubility without temperature
  solubility: < 1000 µg/mL
[3]; organic solvent or mixture, 2-propanol (2-PrOH), solubility without temperature
  solubility: < 1000 µg/mL
[3]; organic solvent or mixture, acetone, solubility without temperature
  solubility: < 1000 µg/mL
[3]; organic solvent or mixture, acetonitrile (ACN), solubility without temperature
  solubility: < 1000 µg/mL
[3]; organic solvent or mixture, anisole, at 60° C.
  solubility: < 1000 µg/mL
[3]; organic solvent or mixture, cyclohexane, at 60° C.
  solubility: < 2000 µg/mL
[3]; organic solvent or mixture, dichloromethane (DCM), solubility without temperature
  solubility: 17000 µg/mL
[3]; organic solvent or mixture, diethyl ether (Et2O), solubility without temperature
  solubility: < 1000 µg/mL
[3]; organic solvent or mixture, dimethylformamide (DMF), solubility without temperature
  solubility: 21000 µg/mL
[3]; organic solvent or mixture, dimethylsulfoxide (DMSO), solubility without temperature
  solubility: 9000 µg/mL
[3]; organic solvent or mixture, ethanol (EtOH), solubility without temperature
  solubility: < 1000 µg/mL
[3]; organic solvent or mixture, ethyl acetate (EtOAc), solubility without temperature
  solubility: < 1000 µg/mL
[3]; organic solvent or mixture, heptane, at 60° C.
  solubility: < 2000 µg/mL
[3]; organic solvent or mixture, methanol (MeOH), solubility without temperature
  solubility: < 1000 µg/mL
[3]; organic solvent or mixture, methyl acetate (MeOAc), at 60° C.
  solubility: < 1000 µg/mL
[3]; organic solvent or mixture, methyl ethyl ketone (MEK), solubility without temperature
  solubility: < 1000 µg/mL
[3]; organic solvent or mixture, methyl tert-butyl ether (MTBE), at 60° C.
  solubility: < 1000 µg/mL
[3]; organic solvent or mixture, tetrahydrofuran (THF), solubility without temperature
  solubility: 9000 µg/mL
[3]; organic solvent or mixture, toluene, at 60° C.
  solubility: < 2000 µg/mL
[3]; water, solubility without temperature
  solubility: < 1000 µg/mL
[4]; 25° C.
  DVS: weight gain up to 95% RH: approximately 7%
[4]; 25° C., 5 to 95% RH
  DVS: hygroscopicity: moderately hygroscopic
[4]; material after sorption/desorption cycle
  Post-DVS XRPD: unchanged
